The subject of assay [1] is SiHa cells. Nature of the assay: Lactate consumption assay (inhibition of lactate influx). In kind it is cell-based. The note with it: Homo sapiens, 24 h treatment in lactate-containing medium. As for the experimental part:
SiHa cells were seeded on flat-bottom 24-well plates (500 000 cells/well) in normal DMEM. After 6 h of incubation, the culture medium was replaced by 1 ml of DMEM containing 10 mM lactate and incubated overnight for metabolic adaptation. Cells were then treated for 24 h with increasing concentrations of compounds (0.1, 1, 10 and 100 μM) in lactate-containing medium at 37° C. The supernatants were then centrifuged using deproteinizing columns (15 min, 10000 g at 4° C.) and lactate concentration was determined using the enzymatic assay commercialized by CMA Microdialysis AB on a CMA600 analyzer (Aurora Borealis).

Assay [2] concerns SiHa cells. Nature of the assay: Cytotoxicity/anti-proliferative MTT assay, lactate as energy source. It is filed as cell-based. The note with it: Homo sapiens, DMEM 10 mM L-lactate without glucose, 72 h. As for the experimental part: SiHa cells (human cervix squamous carcinoma) were routinely cultured in DMEM containing serum and antibiotics as previously described in Sonveaux, P. et al. J. Clin. Invest 2008 118, 3930. Two distinct media were used for the cytotoxicity assay, either DMEM containing 25 mM D-glucose (without pyruvate) or DMEM containing 10 mM L-lactate (without glucose). SiHa cells were seeded in flat-bottom 96-well plates in normal DMEM. After 6 h of incubation, the culture medium was replaced by 100 μl of glucose- or lactate-containing medium and incubated overnight for metabolic adaptation. SiHa cells were treated with the compounds of the invention at a concentration range of 0.01 μM to 100 μM. After a 72 h incubation at 37° C., cell medium was removed and replaced by freshly prepared MTT in PBS (1 mg/ml, 100 μl/well). After a 3 h incubation at 37° C., the plates were centrifuged (1000 g, 10 min at 4° C.) and the supernatant was removed before addition of DMSO (100 μl/well). Plates were kept for 10 min in the dark before reading at the spectrophotometer (Victor X4).

The subject of assay [3] is SiHa cells xenograft. As to the kind of experiment: In vivo anti-cancer activity in combination with cisplatin against cervix cancer (SiHa cells xenograft model). The note with it: nude NMRI mice, cisplatin 5 mg/kg IP day 0 and 7 plus compound 3 mg/kg daily IP day 1-6 and 8-11, FIG. 3. The method, then: (§1) Seven weeks old female nude mice (Janvier®, 4-5 mice per group, NMRI), were used for the experiments. SiHa cells were subcutaneously injected (2.10^6 cells in sterile NaCl 0.9% per mouse) on the left flank of the mice (100 μl/mouse). The treatment of the mice with compounds of the invention was started when tumor xenografts reached approximately 5 mm of length and width (Caliper® measurement). […] Tumor volume was calculated as the following: (length×width^2×π)/6 and expressed in mm^3. Tumor growth delay graphs and statistical analysis (Two-way ANOVA) were performed using GraphPad Prism 4 software.

The subject of assay [4] is SiHa cells xenograft. Nature of the assay: In vivo anti-cancer activity against cervix cancer (SiHa cells xenograft model). The note with it: nude NMRI mice, 3 mg/kg daily IP, FIG. 1(A). The method, then: 7 weeks old female nude mice (Janvier®, 4-5 mice per group, Balb-c or NMRI) with various human cancer cell lines xenografts were used. SiHa cells were subcutaneously injected (10^6 to 2.10^6 (10^6 or 2.10^6) cells in sterile NaCl 0.9% per mouse) on the left flank of the mice (100 μl/mouse). […] Tumor volume was calculated as following: (length×width^2×π)/6 and expressed in mm^3. Tumor growth delay graphs and statistical analysis (Two-way ANOVA) were performed using GraphPad Prism 4 software.

The test system of assay [5] is SiHa cells. As to the kind of experiment: [14C]-lactate uptake assay (inhibition of lactate influx). It is filed as cell-based. The note with it: Homo sapiens, 0.2 h, 2 μM [14C]-lactate for 12 min. The method, then: After 6 h of incubation, the culture medium was replaced by 1 ml of DMEM containing 10 mM lactate and incubated overnight for metabolic adaptation.
The test system of assay [6] is HCT116 cells xenograft. As to the kind of experiment: In vivo anti-cancer activity against colon cancer (HCT116 cells xenograft model). The note with it: nude NMRI mice, 3 mg/kg daily IP, FIG. 2. As for the experimental part:
as §1, with “HCT116” for “SiHa”

As a reminder, the IC50 is the midpoint of a concentration-inhibition curve. Higher therefore signals a need for much substance. Usually CC50 stands for the concentration that lowers cell viability or growth by half. A lower CC50 goes with harm at low concentration. `COc1ccc2cc(C(=O)O)c(=O)oc2c1` [cpd 2, 7-methoxy-2-oxo-2H-chromene-3-carboxylic acid] came in with a concentration for half-maximal inhibition (IC50) in assay [1] of 2.3 µM. In assay [2], this compound displayed a CC50 of 9.8 µM.

In turn, `O=C(O)c1cc2ccc(OCc3cc(C(F)(F)F)cc(C(F)(F)F)c3)cc2oc1=O` [cpd 3, 7-((3,5-bis(trifluoromethyl)benzyl)oxy)-2-oxo-2H-chromene-3-carboxylic acid] yielded a 50% cytotoxic concentration (CC50) in assay [2] of 0.6 µM. As to `O=C(O)c1cc2ccc(OCc3cccc4ccccc34)cc2oc1=O` [cpd 5, 7-(naphthalen-1-ylmethoxy) 2-oxo-2H-chromene-3-carboxylic acid], the midpoint of cytotoxicity in assay [2], the CC50, lay at 1.09 µM. Consider `O=C(O)c1cc2ccc(OCc3cccc(F)c3)cc2oc1=O` [cpd 7, 7-((3-fluorobenzyl)oxy)-2-oxo-2H-chromene-3-carboxylic acid], for which, in assay [2], it took 1.17 µM to reach half-maximal cytotoxicity (CC50). `O=C(O)c1cc2ccc(OCc3ccccc3)cc2oc1=O` [cpd 9, 7-(benzyloxy)-2-oxo-2H-chromene-3-cartboxylic acid] returned an IC50 in assay [1] of 1.9 µM. This compound also returned a 50% cytotoxic concentration (CC50) in assay [2] of 9.1 µM.

Compound `O=C(O)c1cc2ccc(OCc3ccccc3Cl)cc2oc1=O` [cpd 11, 7-((2-chlorobenzyl)oxy)-2-oxo-2H-chromene-3-carboxylic acid] displayed a CC50 in assay [2] of 4.23 µM. On the same count and under the same terms, the figure for `COc1cccc(COc2ccc3cc(C(=O)O)c(=O)oc3c2)c1` [cpd 13] is 4.6 µM. Regarding `O=C(O)c1cc2ccc(OCCc3ccccc3)cc2oc1=O` [cpd 15, 2-oxo-7-phenethoxy-2H-chromene-3-carboxylic acid], in assay [1], it took 2.4 µM to reach half-maximal inhibition (IC50). In assay [2], this compound gave a 50% cytotoxic concentration (CC50) of 5.6 µM. In turn, `CC(C)=CCC/C(C)=C/COc1ccc2cc(C(=O)O)c(=O)oc2c1` [cpd 17, (E)-7-((3,7-dimethylocta-2,6-dien-1-yl)oxy)-2-oxo-2H-chromene-3-carboxylic acid] registered a CC50 in assay [2] of 11.7 µM. The same measure, in the same setting: for `O=C(O)c1cc2ccc(OCc3ccc(Cl)c(Cl)c3)cc2oc1=O` [cpd 19, 7-((3,4-dichlorobenzyl)oxy)-2-oxo-2H-chromene-3-carboxylic acid] the value was 68.4 µM.

Compound `COc1ccc(OC)c(COc2ccc3cc(C(=O)O)c(=O)oc3c2)c1` [cpd 22] came in with a CC50 in assay [2] of 0.702 µM.

Turning to `O=C(O)c1cc2ccc(OCn3nnc4ccccc43)cc2oc1=O` [cpd 24, 7-((1H-benzo[d][1,2,3]triazol-1-yl)methoxy)-2-oxo-2H-chromene-3-carboxylic acid], the CC50 in assay [2] was 1.1 µM. In assay [1], `O=C(O)c1cc2ccc(OCc3ccc(F)cc3)cc2oc1=O` [cpd 26, 7-((4-fluorobenzyl)oxy)-2-oxo-2H-chromene-3-carboxylic acid] returned an IC50 of 1.25 µM. The 50% cytotoxic concentration (CC50) in assay [2] was 3.9 µM. In the case of `O=C(O)c1cc2ccc(OCc3ccc(C(F)(F)F)cc3)cc2oc1=O` [cpd 28, 2-oxo-7-((4-(trifluoromethyl)benzyl)oxy)-2H-chromene-3-carboxylic acid], the midpoint of cytotoxicity in assay [2], the CC50, lay at 6.86 µM. On the same count and under the same terms, for `O=C(O)c1cc2ccc(OC3Cc4ccccc4C3)cc2oc1=O` [cpd 30, 7-((2,3-dihydro-1H-inden-2-yl)oxy)-2-oxo-2H-chromene-3-carboxylic acid] the value was 7.8 µM. Regarding `CN(Cc1ccccc1)c1ccc2cc(C(=O)O)c(=O)oc2c1` [cpd 31, 7-(benzyl(methyl)amino)-2-oxo-2H-chromene-3-carboxylic acid], in assay [3], the “Delay in tumor relapse (tumor volume)” value is “clear delay in tumor relapse”. The IC50 in assay [1] came out at 0.059 µM; in assay [5] it was 0.011 µM. This compound registered a cytotoxic concentration (CC50) in assay [2] of 0.22 µM. Also, the “Tumor growth delay (tumor volume)” value in assay [4] and in assay [6] was “clear tumor growth delay” throughout. Turning to `O=C(O)c1cc2ccc(N3CCCC3)cc2oc1=O` [cpd 33, 2-oxo-7-(pyrrolidin-1-yl)-2H-chromene-3-carboxylic acid], the cytotoxic concentration (CC50) in assay [2] worked out at 14.3 µM. Compound `O=C(O)c1cc2ccc(N3CCOCC3)cc2oc1=O` [cpd 34, 7-morpholino-2-oxo-2H-chromene-3-carboxylic acid] showed a half-inhibitory concentration (IC50) in assay [1] of 7.9 µM. In addition, the cytotoxic concentration (CC50) in assay [2] was determined as 17.5 µM. For `CN(C)c1ccc2cc(C(=O)O)c(=O)oc2c1` [cpd 35, 7-(dimethlamino)-2-oxo-2H-chromene-3-carboxylic acid] the same measures were 1.4 µM and 2.9 µM. `O=C(O)c1cc2cc3c4c(c2oc1=O)CCCN4CCC3` [cpd 37, 11-oxo-2,3,5,6,7,11-hexahydro-1H-pyrano[2,3 - f]pyrido[3,2,1-ij]quinoline-10-carboxylic acid] yielded an IC50 in assay [1] of 1.3 µM. This compound also showed a 50% cytotoxic concentration (CC50) in assay [2] of 1.2 µM.

The compound `O=C(O)c1cc2ccc(NCc3ccccc3)cc2oc1=O` [cpd 39, 7-(benzylamino)-2-oxo-2H-chromene-3-carboxylic acid] displayed a cytotoxic concentration (CC50) in assay [2] of 1.79 µM. Same read-out and setting: for `CCN(Cc1ccccc1)c1ccc2cc(C(=O)O)c(=O)oc2c1` [cpd 41, 7-(benzyl(ethyl)amino)-2-oxo-2H-chromene-3-carboxylic acid] the value was 1.9 µM; for `CC(C)CN(Cc1ccccc1)c1ccc2cc(C(=O)O)c(=O)oc2c1` [cpd 43, 7-(benzyl(isobutyl)amino)-2-oxo-2H-chromene-3-carboxylic acid], 16.3 µM. Turning to `CCCN(Cc1ccccc1)c1ccc2cc(C(=O)O)c(=O)oc2c1` [cpd 44, 7-(benzyl(propyl)amino)-2-oxo-2H-chromene-3-carboxylic acid], in assay [2], half-maximal cytotoxicity (CC50) was put at 11.1 µM. For `CC(C)CN(C)c1ccc2cc(C(=O)O)c(=O)oc2c1` [cpd 45, 7-(isobutyl(methyl)amino)-2-oxo-2H-chromene-3-carboxylic acid], half-maximal cytotoxicity in assay [2] (CC50) was put at 0.22 µM. On the same count and under the same terms, for `CN(Cc1cccs1)c1ccc2cc(C(=O)O)c(=O)oc2c1` [cpd 46, 7-(methyl(thiophen-2-ylmethyl)amino)-2-oxo-2H-chromene-3-carboxylic acid] the value was 0.21 µM. On the same count and under the same terms, for `CN(Cc1cccc(F)c1)c1ccc2cc(C(=O)O)c(=O)oc2c1` [cpd 47, 7-((3-fluorobenzyl)(methyl)amino)-2-oxo-2H-chromene-3-carboxylic acid] the value was 0.04 µM.

`CN(CC1CCCCC1)c1ccc2cc(C(=O)O)c(=O)oc2c1` [cpd 48, 7-((cyclohexylmethyl)(methyl)amino)-2-oxo-2H-chromene-3-carboxylic acid] showed a CC50 in assay [2] of 0.2 µM.

In assay [2], `COc1cccc(CN(C)c2ccc3cc(C(=O)O)c(=O)oc3c2)c1` [cpd 49, 7-((3-methoxybenzyl)(methyl)amino)-2-oxo-2H-chromene-3-carboxylic acid] gave a CC50 of 0.07 µM. The same measure, in the same setting: the figure for `CN(CC1CCOCC1)c1ccc2cc(C(=O)O)c(=O)oc2c1` [cpd 50, 7-(methyl((tetrahydro-2H-pyran-4-yl)methyl)amino)-2-oxo-2H-chromene-3-carboxylic acid] is 0.1 µM. With `O=C(O)c1cc2ccc(N(Cc3ccccc3)Cc3ccccc3)cc2oc1=O` [cpd 51, 7-(dibenzylamino)-2-oxo-2H-chromene-3-carboxylic acid], the midpoint of cytotoxicity in assay [2], the CC50, lay at 12.7 µM. On the same count and under the same terms, for `O=C(Nc1ccc2cc(C(=O)O)c(=O)oc2c1)c1ccccc1` [cpd 116, 7-benzamido-2-oxo-2H-chromene-3-carboxylic acid] the value was 1.5 µM.

Values taken from US20160115146A1, “3-CARBOXY SUBSTITUTED COUMARIN DERIVATIVES WITH A POTENTIAL UTILITY FOR THE TREATMENT OF CANCER DISEASES” (UNIVERSITE CATHOLIQUE DE LOUVAIN, priority 2013, published 2016).
